The assay deals with siRNA. The assay can be described thus: Gel shift (electrophoretic shift in agarose gel) of siRNA by coupling to the dendrimer. Format: binding. The note with it: 2 μM siRNA; 30 min incubation at ambient temperature; 1% agarose gel, 15 min at 60V. From the text:
FIG. 1, relates to the electrophoretic shift analysis of siRNA by the coupling to the compound of general formula (I). The numbers in (A) correspond to different N/P ratios (nitrogenated amines in compound of general formula (0/phosphates in siRNA): (1) 1:0 (siRNA alone), (2) 6:1, (3) 12:1, (4) 24:1, (5) 48:1, (6) 96:1, (7) 192:1 and (8) 384:1. The densitometric analysis of the results of the gel shift experiment are shown in (B).
The compound complexes of general formula (I)-siRNA were formed by mixing equal quantities of volume of the solution that contained compound of general formula (I) and of that containing the siRNA (Org Biomol Chem. 2007. 5: 1886-1893; Pharm Res. 2009. 26: 1181-1191), and incubating the mixture under stirring during 30 minutes at ambient temperature. Both molecules were dissolved in DEPC water (free from RNAses).
The shift in agarose gel was used to ascertain the N/P ratio (nitrogenated amines in compound of general formula (I)/phosphates in siRNA) adapted to obtain the greatest efficacy of bonding possible between both molecules (Mol Biol Rep. 2009. 36: 1083-1093; Am J Med Genet B Neuropsychiatr Genet. 2008. 147B: 769-777). The mixing of different concentrations of compound of general formula (I) and of 250 ng of siRNA was tested. […] The gels were photographed and the bands were quantified with a suitable image analysis system (Quantity One). […]
(In general: A gel shift assay detects complexes by their altered migration in electrophoresis.)

Results on 1 compound are retold here after patent publication US20130210887A1, “DENDRIMERS AS NON-VIRAL VEHICLES FOR GENE THERAPY” (UNIVERSIDAD DE CASTILLA LA MANCHA, priority 2010, published 2013).

On to `NCCNC(=O)CCN(CCC(=O)NCCN)CCN(CCC(=O)NCCN)Cc1ccc(/C=C/c2cc(/C=C/c3ccc(CN(CCC(=O)NCCN)CCN(CCC(=O)NCCN)CCC(=O)NCCN)cc3)cc(/C=C/c3ccc(CN(CCC(=O)NCCN)CCN(CCC(=O)NCCN)CCC(=O)NCCN)cc3)c2)cc1` [compound of general formula (I)], for which the “concentration of compound of general formula (I) at which all the siRNA is fixed (P/N ratio of 12:1)” value was found to be 22 µM.
